Results taken from a melting point compilation (Tetko et al.; mined from patent text by program, amines drawn as free bases though some values may be those of a salt).

With `CC1(C)O[C@@H]2[C@H](O1)[C@@H](CO)O[C@H]2n1cnc2c(N)nc(I)nc21` the melting point was 185 to 187 °C.
`COc1ccccc1NC(=S)C1CCc2nc[nH]c2C1` (configuration not stated) gave a melting point of 218 to 219 °C.
`NC(=O)[C@@H]1CCCN1C(=O)CNP(=O)(Cc1ccccc1)Cc1ccccc1` gave a melting point of 91 to 95 °C.
Compound `CC(=O)NS(=O)(=O)c1ccc(-c2c(-c3cccc(F)c3)noc2C)cc1` has a melting point of 144 to 145 °C.
For `CCOC(=O)C1=C(C)Nc2nc(N)nc(N)c2C1c1cccc([N+](=O)[O-])c1` (configuration not stated), the melting point was 230 °C.
`C[C@H]1CCCC(C)(C)[C@@H]1[C@H](O)c1ccc(Cl)c(Cl)c1` showed a melting point of 94.2 to 96.2 °C.
Work on `O=C1c2ccccc2C(=O)N1CC(=O)N1c2ccccc2N(Cc2ccncc2)C(=O)[C@H]2CCC[C@H]21` (relative stereo) yielded a melting point of 211 to 212 °C.
For `COc1cccc(N(CCN2CCC(C(=O)c3ccc(F)cc3)CC2)C(=O)c2ccc(N)cc2)c1`, the melting point was 126 to 128 °C.
Work on `CON(Cc1ccc(F)cc1Cl)C(=O)C1=C(O)C(=O)N(C)C1` yielded a melting point of 152 to 155 °C.
In the case of `CN=C(NS(=O)(=O)c1ccc(Cl)cc1)C1=NN(c2ccc(Cl)cc2)C(c2ccccc2)C1` (configuration not stated), the melting point is reported as 134 to 144 °C.
With `CN1CC(C(=O)c2ccc(Cc3ccc(F)cc3)o2)=C(O)C1=O` the melting point was 141 to 143 °C.
`CS(=O)c1ccc(Nc2ccn(-c3ccccc3)n2)cc1` (configuration not stated) showed a melting point of 123 to 124 °C.
`Cc1ccnc(-c2ccc(C(F)(F)F)cc2)n1` showed a melting point of 50 °C.
Work on `O=c1c2c(N3CCNCC3)cc(Cl)cc2n(Cc2ccccc2)c(=O)n1CCCc1ccccc1` yielded a melting point of 62 to 68 °C.
In the case of `O=c1c2cc(F)c(F)cc2[nH]c2c1cnn2-c1ccccn1`, the melting point is reported as > 300 °C.
With `CNc1nc(C)c(-c2ccnc(Nc3ccc(N4CCNCC4)cc3)n2)s1` the melting point was 253 to 255 °C.
For `COc1ccc(-c2c(/C=C/C(=O)O)ccc3cc(OC)ccc23)cc1`, the melting point was 248 to 249 °C.
With `CCOC(=O)C1=C(O)C(C)(CC)CNC1=O` (configuration not stated) the melting point was 196 to 197 °C.
Work on `CNC(=O)N1CC(Oc2ccccc2C(N)=O)C1` yielded a melting point of 236 to 240 °C.
`O=C(CCl)Nc1ccc(Cl)cc1C(=O)O` showed a melting point of 188 °C.
Compound `COc1ccccc1Oc1c(Cl)nc(N)nc1Cl` has a melting point of 190 °C.
`CC(C)(C)NCC(O)COc1cccc(NC(N)=O)c1C(N)=O` (configuration not stated) gave a melting point of 189 to 191 °C.
In the case of `COc1ccc2nc(Cl)c(C=NO)cc2c1`, the melting point is reported as 195 °C.
`O=C(O)Cc1nc(-c2ccc(Cl)cc2)oc1-c1ccsc1` gave a melting point of 218 to 219 °C.
With `Clc1ccc(Cn2cc(C3(Cn4ccnc4)CCCC3)c3ccccc32)cc1` the melting point was 91 to 92 °C.
For `CCOC(=O)NC1CCCCn2c1nc(-c1ccncn1)c(Br)c2=O` (racemic), the melting point was 72 to 74 °C.
In the case of `COc1ccc(C(=O)Nc2cccnc2)c2c3cc(Cl)ccc3n(Cc3ccc(F)cc3)c12`, the melting point is reported as 224 to 228 °C.
With `COc1cc(Br)cc2c1OCCC2=O` the melting point was 137 °C.
For `C=CCON=C(C)c1cccc(Oc2nc(OC)cc(OC)n2)c1C(=O)OC`, the melting point was 76 to 78 °C.
For `CNC(=O)Oc1cccc(C2CCCN2CCN2C(=O)c3ccccc3C2=O)c1` (configuration not stated), the melting point was 96 to 98 °C.
`NC(=O)N(O)Cc1ccc(N2CCC3(CC2)OCCO3)cc1` showed a melting point of 153 to 154 °C.
Compound `COc1ccccc1NC(=O)CN1CCN(c2ncccc2C#N)CC1` has a melting point of 174 to 175 °C.
`Cc1cc(O)c(C)c(C)c1OC(=O)C(C)(C)C` showed a melting point of 88 to 112 °C.
`NC1=Nc2ccc(I)cc2C(c2ccccc2F)=NC1` showed a melting point of 219 to 221 °C.
For `CCNC(=O)N(CCO)Cc1cc([N+](=O)[O-])ccc1OC`, the melting point was 93 to 94 °C.
In the case of `O=c1oc(-c2cccc(Cl)c2)ns1`, the melting point is reported as 83 to 84.5 °C.
`CC(C)(C)OC(=O)C(N)CCNC(=O)c1ccc2c(c1)C(=O)c1ccccc1C2=O` (configuration not stated) gave a melting point of 173 to 175 °C.
In the case of `CCOC(=O)c1cc2c(=O)c3cc(C(C)(C)O)ccc3oc2nc1N`, the melting point is reported as 263 to 264 °C.
`O=C(NCCCC1OCC(c2cccc3ccccc23)CO1)C(F)(F)F` (configuration not stated) gave a melting point of 83 to 84 °C.
`Cc1ccccc1C(=O)NC(=O)NC1CN2CCC1CC2` (configuration not stated) showed a melting point of 216 to 217 °C.
Compound `O=C(c1cc2cc3[nH]c(=O)oc3cc2[nH]1)N1CCC(OCc2ccccc2)CC1` has a melting point of 258 to 261 °C.
Work on `CN1C(=O)C2C3C=CC(CC3)C2S1=O` (configuration not stated) yielded a melting point of 118 to 120 °C.
In the case of `CCCCCCCCC(CCC)CC(=O)Nc1ccccc1` (configuration not stated), the melting point is reported as 98 to 100 °C.
Work on `COC(=O)Cc1cc2c(cc1CC(=O)NCCc1cccc(OC)c1)OCO2` yielded a melting point of 81 to 83 °C.
Work on `CN(C)Cc1nc(CSCCNC(=N)N[N+](=O)[O-])cs1` yielded a melting point of 104 to 106 °C.
With `CCCCc1nc2c(N)nc3cccnc3c2n1CCCCNC(=O)Cn1cc(C)c(O)nc1=O` the melting point was 242 to 244 °C.
For `COC(=O)C1=C(C)NC(C(C)(OC)OC)=C(C(=O)OC)C1c1ccccc1Cl` (configuration not stated), the melting point was 145 to 146 °C.
Compound `Cc1oc(-c2ccccc2)nc1COc1ccc(CCCCCBr)cc1` has a melting point of 58 to 59 °C.
With `COc1cc2[nH]c3nc[nH]c(=O)c3c2cc1OC` the melting point was 296 to 298 °C.
`CC1=CC2=C(N3CN(N4CCCC4)C=C3N=N2)N(c2cc(Cl)ccc2Cl)C1` gave a melting point of 157 °C.
With `COc1nc(N2CC(O)C2)c(Cl)nc1NS(=O)(=O)c1cccc(Cl)c1Cl` the melting point was 93 to 95 °C.
Compound `O=C(Nc1cccc(CN2C(=O)[C@H]3CCC[C@H]3N(C(=O)CN3C(=O)c4ccccc4C3=O)c3ccccc32)c1)c1ccccc1` (relative stereo) has a melting point of 244 to 246 °C.
Work on `O=C(O)c1ccoc1Cl` yielded a melting point of 138 to 141 °C.
For `Cn1c2nc3ccccc3nc2c2cccc(CO)c21`, the melting point was 237 to 238 °C.
Work on `Cc1cc(O)cc(O)c1C=O` yielded a melting point of 174 to 177 °C.
In the case of `C=CC(O)c1ccc2cc(OCCCCCC)ccc2c1` (configuration not stated), the melting point is reported as 47 to 48 °C.
Compound `O=C(O)c1ccc(OCCCCCCO)cc1` has a melting point of 132 to 135 °C.
`COc1ccc(N2CCN(c3ccc(-n4cnnc4S)cc3)CC2)cc1` gave a melting point of 232 °C.
Compound `CN(C)C1N(C(=O)c2ccccc2)N=C2c3ccccc3SN21` (configuration not stated) has a melting point of 155 to 156 °C.
Compound `COc1ccccc1C1(O)C(=O)Nc2ccc(C)c(Cl)c21` (configuration not stated) has a melting point of 262 to 263 °C.
`COc1ccccc1-n1c(=O)[nH]c2c(C(N)=O)nc(-n3cnc4ccccc43)nc21` gave a melting point of 318 to 319 °C.
With `CC(=O)OC1CC2CCC3C(CCC4(C)C(O)C(N5CCCC5)CC34)C2(C)CC1N1CCOCC1` (configuration not stated) the melting point was 112 to 118 °C.
For `CCCCCCCCCCCCSc1nnn(C(C(N)=O)(c2ccccc2)c2c(C(C)C)cccc2C(C)C)n1` (configuration not stated), the melting point was 102 to 105 °C.
With `CN1C(=O)SC(C)(C)[C@@H]1[C@@H](CS(=O)(=O)c1ccc(Oc2ccc(OC(F)(F)F)cc2)cc1)N(O)C=O` the melting point was 84 to 86 °C.
`Cc1ccc(-c2ncc3c(n2)CCCCC3)nc1-c1ccccc1` gave a melting point of 151 to 154 °C.
With `CCOC(=O)C(CC(C)C)NC(=O)C(Cc1ccccc1)NC(=O)CNC(=O)CNC(=O)C(Cc1ccc(OCc2ccccc2)cc1)NC(=O)OC(C)(C)C` (configuration not stated) the melting point was 149 to 152 °C.
With `NS(=O)(=O)c1ccc(N2CC(=O)N(C3CCCCC3)C2=O)cc1` the melting point was 237 to 238 °C.
Work on `NC1=NC(=O)N(C2CCCCC2)CC1Br` (configuration not stated) yielded a melting point of 152 to 156 °C.
Work on `COc1ccc(CCNC(=O)C(F)(F)F)c2c1NC(=O)C2` yielded a melting point of 175 to 178 °C.
With `COCn1nc(N2C(=O)c3ccccc3C2=O)c2cc(S(=O)(=O)C(C)C)cc(OCCc3ccccn3)c21` the melting point was 160 to 161 °C.
For `CCc1noc(-c2cccc3c2C(=O)N(C)Cc2c(-c4nc(CC)no4)ncn2-3)n1`, the melting point was 173 to 174 °C.
For `CC(=O)Nc1cc2c(cc1[N+](=O)[O-])N(NC(C)=O)CC2`, the melting point was 212 to 213 °C.
